Assay results published in the supplement of paper PMC10307832.

Key:
Test in all cases: relative viability (nuclei count vs DMSO), 5 days (fraction); higher = more cells survive
DM3189 = compound: C1CN(CCN1)C2=CC=C(C=C2)C3=CN4C(=C(C=N4)C5=CC=NC6=CC=CC=C56)N=C3 [DM3189]
How it was run: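 Acceptance criteria were a control CV below 25% and at least one doubling per plate. Lung cancer cell lines in 1536-well plates got five library-drug doses (not always all listed) √10 apart by pinning and were left 5 days with no medium change. Viability divides treated-well nuclei by vehicle-well nuclei and is the median across plates. Nuclei were counted by MetaXpress from 4× Hoechst images.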

DM3189 + Bortezomib = compound: C1CN(CCN1)C2=CC=C(C=C2)C3=CN4C(=C(C=N4)C5=CC=NC6=CC=CC=C56)N=C3 [DM3189] + CC(C)C[C@H](NC(=O)[C@H](Cc1ccccc1)NC(=O)c1cnccn1)B(O)O [Bortezomib] (partner 0.002 µM)
How it was run: (§1)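 Lung cancer cell lines were pin-tool dosed in 1536-well plates on the day after seeding, with either a lone drug or a fixed anchor-drug dose plus five library-drug doses (not always all listed) in √10 steps. Nuclei were counted on 4× images after 5 days. Relative viability is the ratio of treated-well to vehicle-well nuclei counts, with each value a median of duplicate plates.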

DM3189 + Navitoclax = compound: C1CN(CCN1)C2=CC=C(C=C2)C3=CN4C(=C(C=N4)C5=CC=NC6=CC=CC=C56)N=C3 [DM3189] + CC1(C)CCC(c2ccc(Cl)cc2)=C(CN2CCN(c3ccc(C(=O)NS(=O)(=O)c4ccc(N[C@H](CCN5CCOCC5)CSc5ccccc5)c(S(=O)(=O)C(F)(F)F)c4)cc3)CC2)C1 [Navitoclax] (partner 0.5 µM)
How it was run: as §1

DM3189 + Foretinib = compound: C1CN(CCN1)C2=CC=C(C=C2)C3=CN4C(=C(C=N4)C5=CC=NC6=CC=CC=C56)N=C3 [DM3189] + COc1cc2c(Oc3ccc(NC(=O)C4(C(=O)Nc5ccc(F)cc5)CC4)cc3F)ccnc2cc1OCCCN1CCOCC1 [Foretinib] (partner 0.25 µM)
How it was run: as §1

DM3189 + Lapatinib = compound: C1CN(CCN1)C2=CC=C(C=C2)C3=CN4C(=C(C=N4)C5=CC=NC6=CC=CC=C56)N=C3 [DM3189] + CS(=O)(=O)CCNCc1ccc(-c2ccc3ncnc(Nc4ccc(OCc5cccc(F)c5)c(Cl)c4)c3c2)o1 [Lapatinib] (partner 2 µM)
How it was run: as §1

DM3189 + Pictilisib = compound: C1CN(CCN1)C2=CC=C(C=C2)C3=CN4C(=C(C=N4)C5=CC=NC6=CC=CC=C56)N=C3 [DM3189] + CS(=O)(=O)N1CCN(Cc2cc3nc(-c4cccc5[nH]ncc45)nc(N4CCOCC4)c3s2)CC1 [Pictilisib] (partner 1 µM)
How it was run: as §1

DM3189 + Crizotinib = compound: C1CN(CCN1)C2=CC=C(C=C2)C3=CN4C(=C(C=N4)C5=CC=NC6=CC=CC=C56)N=C3 [DM3189] + C[C@@H](Oc1cc(-c2cnn(C3CCNCC3)c2)cnc1N)c1c(Cl)ccc(F)c1Cl [Crizotinib] (partner 1 µM)
How it was run: as §1

DM3189 + Linsitinib = compound: C1CN(CCN1)C2=CC=C(C=C2)C3=CN4C(=C(C=N4)C5=CC=NC6=CC=CC=C56)N=C3 [DM3189] + C[C@]1(O)C[C@@H](c2nc(-c3ccc4ccc(-c5ccccc5)nc4c3)c3c(N)nccn32)C1 [Linsitinib] (partner 1 µM)
How it was run: as §1

DM3189 + Alpelisib = compound: C1CN(CCN1)C2=CC=C(C=C2)C3=CN4C(=C(C=N4)C5=CC=NC6=CC=CC=C56)N=C3 [DM3189] + Cc1nc(NC(=O)N2CCC[C@H]2C(N)=O)sc1-c1ccnc(C(C)(C)C(F)(F)F)c1 [Alpelisib] (partner 2 µM)
How it was run: as §1

DM3189 + Olaparib = compound: C1CN(CCN1)C2=CC=C(C=C2)C3=CN4C(=C(C=N4)C5=CC=NC6=CC=CC=C56)N=C3 [DM3189] + O=C(c1cc(Cc2n[nH]c(=O)c3ccccc23)ccc1F)N1CCN(C(=O)C2CC2)CC1 [Olaparib] (partner 8 µM)
How it was run: as §1

Cell Line | relative viability (DM3189; 0.08 µM) | relative viability (DM3189; 0.253 µM) | relative viability (DM3189; 0.8 µM) | relative viability (DM3189; 2.53 µM) | relative viability (DM3189 + Bortezomib; first compound 0.08 µM) | relative viability (DM3189 + Bortezomib; first compound 0.253 µM) | relative viability (DM3189 + Bortezomib; first compound 0.8 µM) | relative viability (DM3189 + Bortezomib; first compound 2.53 µM) | relative viability (DM3189 + Navitoclax; first compound 0.08 µM) | relative viability (DM3189 + Navitoclax; first compound 0.253 µM) | relative viability (DM3189 + Navitoclax; first compound 0.8 µM) | relative viability (DM3189 + Navitoclax; first compound 2.53 µM) | relative viability (DM3189 + Foretinib; first compound 0.08 µM) | relative viability (DM3189 + Foretinib; first compound 0.253 µM) | relative viability (DM3189 + Foretinib; first compound 0.8 µM) | relative viability (DM3189 + Foretinib; first compound 2.53 µM) | relative viability (DM3189 + Lapatinib; first compound 0.08 µM) | relative viability (DM3189 + Lapatinib; first compound 0.253 µM) | relative viability (DM3189 + Lapatinib; first compound 0.8 µM) | relative viability (DM3189 + Lapatinib; first compound 2.53 µM) | relative viability (DM3189 + Pictilisib; first compound 0.08 µM) | relative viability (DM3189 + Pictilisib; first compound 0.253 µM) | relative viability (DM3189 + Pictilisib; first compound 0.8 µM) | relative viability (DM3189 + Pictilisib; first compound 2.53 µM) | relative viability (DM3189 + Crizotinib; first compound 0.08 µM) | relative viability (DM3189 + Crizotinib; first compound 0.253 µM) | relative viability (DM3189 + Crizotinib; first compound 0.8 µM) | relative viability (DM3189 + Crizotinib; first compound 2.53 µM) | relative viability (DM3189 + Linsitinib; first compound 0.08 µM) | relative viability (DM3189 + Linsitinib; first compound 0.253 µM) | relative viability (DM3189 + Linsitinib; first compound 0.8 µM) | relative viability (DM3189 + Linsitinib; first compound 2.53 µM) | relative viability (DM3189 + Alpelisib; first compound 0.08 µM) | relative viability (DM3189 + Alpelisib; first compound 0.253 µM) | relative viability (DM3189 + Alpelisib; first compound 0.8 µM) | relative viability (DM3189 + Alpelisib; first compound 2.53 µM) | relative viability (DM3189 + Olaparib; first compound 0.08 µM) | relative viability (DM3189 + Olaparib; first compound 0.253 µM) | relative viability (DM3189 + Olaparib; first compound 0.8 µM) | relative viability (DM3189 + Olaparib; first compound 2.53 µM)
Calu-6 | 1.03 | 0.966 | 0.812 | 1.03 | 0.997 | 0.941 | 0.816 | 0.784 | 0.819 | 0.678 | 0.705 | 0.486 | 0.901 | 0.768 | 0.715 | 0.765 | 0.998 | 0.905 | 0.822 | 0.885 | 0.876 | 0.658 | 0.657 | 0.692 | 0.895 | 0.788 | 0.732 | 0.544 | 0.975 | 0.958 | 0.703 | 0.763 | 1.06 | 0.855 | 0.702 | 0.77 | 0.625 | 0.529 | 0.45 | 0.608
EBC-1 | 0.974 | 0.989 | 0.963 | 1.07 | 0.63 | 0.611 | 0.483 | 0.551 | 0.48 | 0.356 | 0.478 | 0.391 | 0.11 | 0.106 | 0.0886 | 0.0977 | 0.228 | 0.214 | 0.214 | 0.2 | 0.419 | 0.435 | 0.344 | 0.285 | 0.196 | 0.183 | 0.164 | 0.179 | 0.993 | 0.965 | 0.869 | 1.06 | 0.864 | 0.759 | 0.817 | 0.985 | 0.858 | 0.778 | 0.71 | 0.673
